The values that follow come from patent US9115137B2, “2,3,4,5-tetrahydro-1H-pyrido[4,3-B]indole compounds and methods of use thereof” (priority 2008, dated 2015).

In general, inhibition refers to the change of the read-out against control, counted positive when it falls.

T1 sequence (P28223 whole entry): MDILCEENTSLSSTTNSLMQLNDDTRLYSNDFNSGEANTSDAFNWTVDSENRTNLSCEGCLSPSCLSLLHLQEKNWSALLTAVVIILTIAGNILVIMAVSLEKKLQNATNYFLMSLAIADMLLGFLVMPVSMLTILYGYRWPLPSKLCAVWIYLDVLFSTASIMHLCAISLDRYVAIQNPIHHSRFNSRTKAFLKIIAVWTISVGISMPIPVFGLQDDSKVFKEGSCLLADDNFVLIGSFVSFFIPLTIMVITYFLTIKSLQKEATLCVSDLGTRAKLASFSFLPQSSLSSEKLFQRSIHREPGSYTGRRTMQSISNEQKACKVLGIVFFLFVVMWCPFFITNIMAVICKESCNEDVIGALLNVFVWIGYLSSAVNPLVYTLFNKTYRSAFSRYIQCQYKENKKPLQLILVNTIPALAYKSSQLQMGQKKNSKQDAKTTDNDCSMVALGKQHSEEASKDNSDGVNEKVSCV
T2 sequence (P34969 whole entry): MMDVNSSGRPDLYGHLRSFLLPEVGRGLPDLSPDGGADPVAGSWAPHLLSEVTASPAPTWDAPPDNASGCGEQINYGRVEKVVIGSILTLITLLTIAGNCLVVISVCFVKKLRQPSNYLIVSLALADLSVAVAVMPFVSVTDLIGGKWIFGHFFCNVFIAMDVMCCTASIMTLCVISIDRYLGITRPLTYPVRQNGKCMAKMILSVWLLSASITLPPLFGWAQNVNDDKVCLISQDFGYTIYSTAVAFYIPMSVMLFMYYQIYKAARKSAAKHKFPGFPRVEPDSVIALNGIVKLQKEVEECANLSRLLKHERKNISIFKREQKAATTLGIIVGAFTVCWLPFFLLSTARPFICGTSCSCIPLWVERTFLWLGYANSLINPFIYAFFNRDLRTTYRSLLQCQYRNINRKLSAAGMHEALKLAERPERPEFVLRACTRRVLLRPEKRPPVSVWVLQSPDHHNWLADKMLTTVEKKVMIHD
T4 sequence (P41595 whole entry): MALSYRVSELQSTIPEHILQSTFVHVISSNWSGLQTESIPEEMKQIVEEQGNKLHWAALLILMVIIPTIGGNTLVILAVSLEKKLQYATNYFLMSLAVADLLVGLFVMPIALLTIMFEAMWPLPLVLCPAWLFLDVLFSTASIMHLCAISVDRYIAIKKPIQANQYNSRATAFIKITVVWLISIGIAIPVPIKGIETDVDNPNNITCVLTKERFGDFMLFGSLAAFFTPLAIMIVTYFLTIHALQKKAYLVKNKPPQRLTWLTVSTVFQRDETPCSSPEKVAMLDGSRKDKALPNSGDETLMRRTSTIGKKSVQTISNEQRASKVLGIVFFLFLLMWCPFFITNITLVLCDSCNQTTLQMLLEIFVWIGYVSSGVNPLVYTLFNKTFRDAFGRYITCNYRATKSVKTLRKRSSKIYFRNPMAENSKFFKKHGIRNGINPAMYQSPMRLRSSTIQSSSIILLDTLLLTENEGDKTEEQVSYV
T3 sequence (P14416 whole entry): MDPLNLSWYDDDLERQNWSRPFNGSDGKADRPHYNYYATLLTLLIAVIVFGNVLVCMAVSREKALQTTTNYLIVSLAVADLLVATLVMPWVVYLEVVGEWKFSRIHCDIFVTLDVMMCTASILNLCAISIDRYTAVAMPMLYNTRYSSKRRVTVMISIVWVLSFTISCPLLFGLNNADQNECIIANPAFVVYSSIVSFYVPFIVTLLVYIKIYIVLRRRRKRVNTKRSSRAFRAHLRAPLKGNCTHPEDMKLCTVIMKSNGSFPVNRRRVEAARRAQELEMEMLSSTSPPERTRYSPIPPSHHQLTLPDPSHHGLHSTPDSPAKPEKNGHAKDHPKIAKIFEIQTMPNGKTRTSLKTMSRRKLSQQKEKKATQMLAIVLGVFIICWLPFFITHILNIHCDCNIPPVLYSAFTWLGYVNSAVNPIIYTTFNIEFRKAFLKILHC

One assay has as its target T1, human recombinant serotonin (5-Hydroxytryptamine) 5-HT2A receptor (Homo sapiens, UniProt P28223).
T1 construct: expressed in transfected cells; host or cells: CHO-K1 cells
Description: Serotonin 5-HT2A radioligand binding ([3H]Ketanserin). The following applies: compound at 1 μM; CHO-K1 cells; read-out: Serotonin (1 μM) 5-HT2A, percent inhibition of specific binding. On the procedure:
To evaluate in radioligand binding assays the activity of compounds of the invention, human recombinant serotonin (5-Hydroxytryptamine) 5-HT2A receptor expressed in Chinese hamster ovary (CHO-K1) cells (Bonhaus, D. W. et al. Br. J. Pharmacol. 115:622, 1995; Saucier, C. and Albert, P. R., J. Neurochem. 68:1998, 1997) in a 50 mM Tris-HCl buffer, pH 7.4, was used. Compounds of the invention were incubated with 0.5 nM [^3H]Ketanserin for 60 minutes at 25° C. Non-specific binding was estimated in the presence of 1 μM Mianserin. Receptor proteins were filtered and washed, the filters were then counted to determine [^3H] Ketanserin specifically bound. Compounds were screened at 1 μM or lower, using 1% DMSO as vehicle. Biochemical assay results are presented as the percent inhibition of specific binding in Table 7.
Take `CNC(=O)CCn1c2c(c3cc(C)ccc31)CN(C)CC2` [Compound 1, 3-(1,2,3,4-tetrahydro-2,8-dimethylpyrido[4,3-b]indol-5-yl)-N-methylpropanamide]: the inhibition at 1 µM stood at 30%.
Same read-out and setting: next, `Cc1ccc2c(c1)c1c(n2CCC(=O)NC2CCCC2)CCN(C)C1` [Compound 4, N-cyclopentyl-3-(1,2,3,4-tetrahydro-2,8-dimethylpyrido[4,3-b]indol-5-yl)propanamide]: 53%.
The same measure, in the same setting: next, `C#CCn1c2c(c3cc(C)ccc31)CN(C)CC2` [CD73, 2,8-dimethyl-5-(prop-2-ynyl)-2,3,4,5-tetrahydro-1H-pyrido[4,3-b]indole]: 87%; `Cc1ccc2c(c1)c1c(n2C2CCCCC2O)CCN(C)C1` (stereo not shown) [Compound 73, 2-(1,2,3,4-tetrahydro-2,8-dimethylpyrido[4,3-b]indol-5-yl)cyclohexanol]: 50%.
On the same count and under the same terms, for `Cc1ccc2c(c1)c1c(n2CC(=O)NCC2CCCCC2)CCN(C)C1` [Compound 26, N-(cyclohexylmethyl)-2-(1,2,3,4-tetrahydro-2,8-dimethylpyrido[4,3-b]indol-5-yl)acetamide] the value was 89%; for `Cc1ccc2c(c1)c1c(n2CCC#N)CCN(C)C1` [CD92, 3-(2,8-dimethyl-3,4-dihydro-1H-pyrido[4,3-b]indol-5(2H)-yl)propanenitrile], 67%.
Turning to `Cc1ccc2c(c1)c1c(n2CCNC(=O)C2CCCC2)CCN(C)C1` [Compound 68, N-(2-(1,2,3,4-tetrahydro-2,8-dimethylpyrido[4,3-b]indol-5-yl)ethyl)cyclopentanecarboxamide], the inhibition at 1 µM turned out to be 77%.
Same read-out and setting: next, `Cc1ccc2c(c1)c1c(n2CCBr)CCN(C)C1` [CD91, 5-(2-bromoethyl)-2,8-dimethyl-2,3,4,5-tetrahydro-1H-pyrido[4,3-b]indole]: 96%.
Same read-out and setting: for `CN1CCc2c(c3cc(Cl)ccc3n2CCCO)C1` [CD87, 3-(8-chloro-2-methyl-3,4-dihydro-1H-pyrido[4,3-b]indol-5(2H)-yl)propan-1-ol] the value was 66%.

A further assay has as its target T2, human recombinant serotonin (5-Hydroxytryptamine) 5-HT7 receptor (Homo sapiens, UniProt P34969).
T2 construct: expressed in transfected cells; host or cells: CHO cells
In words: Serotonin 5-HT7 radioligand binding ([3H]LSD). To be noted: compound at 1 μM; CHO cells; read-out: Serotonin (1 μM) 5-HT7, percent inhibition of specific binding. As for the experimental part:
To evaluate in radioligand binding assays the activity of compounds of the invention, human recombinant serotonin (5-Hydroxytryptamine) 5-HT7 receptor expressed in Chinese hamster ovary (CHO) cells (Roth, B. L. et al., J. Pharmacol. Exp. Ther. 268:1403, 1994; Shen, Y. et al., J. Biol. Chem. 268:18200, 1993) in a modified Tris-HCl buffer (50 mM Tris-HCl, pH 7.4, 10 mM MgCl2, 0.5 mM EDTA) was used. Compounds of invention were incubated with 5.5 nM [^3H] Lysergic acid diethylamide (LSD) for 2 hours at 25° C. Non-specific binding was estimated in the presence of 10 μM Serotonin (5-HT). Receptor proteins were filtered and washed, the filters were then counted to determine [^3H]LSD specifically bound. Compounds were screened at 1 μM or lower, using 1% DMSO as vehicle. Biochemical assay results are presented as the percent inhibition of specific binding in Table 7.
With `CNC(=O)CCn1c2c(c3cc(C)ccc31)CN(C)CC2` [Compound 1, 3-(1,2,3,4-tetrahydro-2,8-dimethylpyrido[4,3-b]indol-5-yl)-N-methylpropanamide], the inhibition at 1 µM was found to be 33%.
The same measure, in the same setting: next, `Cc1ccc2c(c1)c1c(n2CCC(=O)NC2CCCC2)CCN(C)C1` [Compound 4, N-cyclopentyl-3-(1,2,3,4-tetrahydro-2,8-dimethylpyrido[4,3-b]indol-5-yl)propanamide]: 59%; `C#CCn1c2c(c3cc(C)ccc31)CN(C)CC2` [CD73, 2,8-dimethyl-5-(prop-2-ynyl)-2,3,4,5-tetrahydro-1H-pyrido[4,3-b]indole]: 91%.
The same measure, in the same setting: next, `Cc1ccc2c(c1)c1c(n2C2CCCCC2O)CCN(C)C1` (stereo not shown) [Compound 73, 2-(1,2,3,4-tetrahydro-2,8-dimethylpyrido[4,3-b]indol-5-yl)cyclohexanol]: 5%.

The next assay concerns the target T3, human recombinant dopamine D2L receptor (Homo sapiens, UniProt P14416).
T3 construct: expressed in transfected cells; host or cells: CHO cells
In words: Dopamine D2L radioligand binding ([3H]Spiperone). To be noted: compound at 1 μM; CHO cells; read-out: Dopamine (1 μM) D2L, percent inhibition of specific binding. On the procedure: To evaluate in radioligand binding assays the activity of compounds of the invention, human recombinant dopamine D2L receptor expressed in Chinese hamster ovary (CHO) cells (Grandy, D. K. et al. Proc. Natl. Acad. Sci. USA. 86:9762, 1989; Hayes, G. et al., Mol. Endocrinol. 6:920, 1992) in a modified Tris-HCl buffer (50 mM Tris-HCl, pH 7.4, 1.4 mM Ascorbic Acid, 0.001% BSA, 150 mM NaCl) was used. Compounds of the invention were incubated with 0.16 nM [^3H]Spiperone for 120 minutes at 25° C. Non-specific binding was estimated in the presence of 10 μM Haloperidol. Receptor proteins were filtered and washed, the filters were then counted to determine [^3H]Spiperone specifically bound. Compounds were screened at 1 μM or lower, using 1% DMSO as vehicle. Biochemical assay results are presented as the percent inhibition of specific binding in Table 6.
As to `Cc1ccc2c(c1)c1c(n2C2CCCCC2O)CCN(C)C1` (stereo not shown) [Compound 73, 2-(1,2,3,4-tetrahydro-2,8-dimethylpyrido[4,3-b]indol-5-yl)cyclohexanol], the inhibition at 1 µM is -3%.
The same measure, in the same setting: for `Cc1ccc2c(c1)c1c(n2CC(=O)NCC2CCCCC2)CCN(C)C1` [Compound 26, N-(cyclohexylmethyl)-2-(1,2,3,4-tetrahydro-2,8-dimethylpyrido[4,3-b]indol-5-yl)acetamide] the value was -4%; for `Cc1ccc2c(c1)c1c(n2CCC#N)CCN(C)C1` [CD92, 3-(2,8-dimethyl-3,4-dihydro-1H-pyrido[4,3-b]indol-5(2H)-yl)propanenitrile], 3%.
Still for that read-out and setting: for `Cc1ccc2c(c1)c1c(n2CCNC(=O)C2CCCC2)CCN(C)C1` [Compound 68, N-(2-(1,2,3,4-tetrahydro-2,8-dimethylpyrido[4,3-b]indol-5-yl)ethyl)cyclopentanecarboxamide] the value was 1%; for `Cc1ccc2c(c1)c1c(n2CCBr)CCN(C)C1` [CD91, 5-(2-bromoethyl)-2,8-dimethyl-2,3,4,5-tetrahydro-1H-pyrido[4,3-b]indole], 15%; for `CN1CCc2c(c3cc(Cl)ccc3n2CCCO)C1` [CD87, 3-(8-chloro-2-methyl-3,4-dihydro-1H-pyrido[4,3-b]indol-5(2H)-yl)propan-1-ol], 10%.

A further assay addresses T4, human recombinant serotonin (5-Hydroxytryptamine) 5-HT2B receptor (Homo sapiens, UniProt P41595).
T4 construct: expressed in transfected cells; host or cells: CHO-K1 cells
Description: Serotonin 5-HT2B radioligand binding ([3H]LSD). To be noted: compound at 1 μM; CHO-K1 cells; read-out: Serotonin (1 μM) 5-HT2B, percent inhibition of specific binding. As for the experimental part:
To evaluate in radioligand binding assays the activity of compounds of the invention, human recombinant serotonin (5-Hydroxytryptamine) 5-HT2B receptor expressed in Chinese hamster ovary (CHO-K1) cells (Bonhaus, D. W. et al., Br. J. Pharmacol. 115:622, 1995) in a modified Tris-HCl buffer (50 mM Tris-HCl, pH 7.4, 4 mM CaCl2, 0.1% Ascorbic Acid) was used. Compounds of invention were incubated with 1.2 nM [^3H]Lysergic acid diethylamide (LSD) for 60 minutes at 37° C. Non-specific binding was estimated in the presence of 10 μM Serotonin (5-HT). Receptor proteins were filtered and washed, the filters were then counted to determine [^3H]LSD specifically bound. Compounds were screened at 1 μM or lower, using 1% DMSO as vehicle. Compounds of the invention were tested in this biochemical assay and percent inhibition of specific binding was determined. Biochemical assay results are presented as the percent inhibition of specific binding in Table 7.
As for `CNC(=O)CCn1c2c(c3cc(C)ccc31)CN(C)CC2` [Compound 1, 3-(1,2,3,4-tetrahydro-2,8-dimethylpyrido[4,3-b]indol-5-yl)-N-methylpropanamide], the inhibition at 1 µM was 23%.
For the compound `Cc1ccc2c(c1)c1c(n2CCC(=O)NC2CCCC2)CCN(C)C1` [Compound 4, N-cyclopentyl-3-(1,2,3,4-tetrahydro-2,8-dimethylpyrido[4,3-b]indol-5-yl)propanamide], the inhibition at 1 µM was found to be 40%.
As for `C#CCn1c2c(c3cc(C)ccc31)CN(C)CC2` [CD73, 2,8-dimethyl-5-(prop-2-ynyl)-2,3,4,5-tetrahydro-1H-pyrido[4,3-b]indole], the inhibition at 1 µM turned out to be 94%.

The target of a further assay is T5, human recombinant serotonin (5-Hydroxytryptamine) 5-HT5A receptor (Homo sapiens, UniProt P47898).
T5 construct: expressed in transfected cells; host or cells: CHO-K1 cells
T5 sequence (P47898 whole entry): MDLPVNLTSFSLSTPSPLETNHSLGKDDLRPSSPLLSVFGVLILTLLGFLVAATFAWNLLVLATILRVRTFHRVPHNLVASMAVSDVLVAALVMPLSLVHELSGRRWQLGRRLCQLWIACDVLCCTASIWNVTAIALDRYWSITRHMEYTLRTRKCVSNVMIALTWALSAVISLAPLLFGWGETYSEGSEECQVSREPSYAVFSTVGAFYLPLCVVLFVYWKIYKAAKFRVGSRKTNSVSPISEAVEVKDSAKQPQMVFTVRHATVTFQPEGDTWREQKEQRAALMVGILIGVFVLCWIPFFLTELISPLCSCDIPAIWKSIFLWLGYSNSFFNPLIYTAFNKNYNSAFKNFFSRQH
Description: Serotonin 5-HT5A radioligand binding ([3H]LSD). To be noted: compound at 1 μM; CHO-K1 cells; read-out: Serotonin (1 μM) 5-HT5A, percent inhibition of specific binding. As for the experimental part: To evaluate in radioligand binding assays the activity of compounds of the invention, human recombinant serotonin (5-Hydroxytryptamine) 5-HT5A receptor expressed in Chinese hamster ovary (CHO-K1) cells (Rees, S. et al., FEBS Lett. 355:242, 1994) in a modified Tris-HCl buffer (50 mM Tris-HCl, pH 7.4, 10 mM MgCl2, 0.5 mM EDTA) was used. Compounds of the invention were incubated with 1.7 nM [^3H]Lysergic acid diethylamide (LSD) for 60 minutes at 37° C. Non-specific binding was estimated in the presence of 100 μM Serotonin (5-HT). Receptor proteins were filtered and washed, the filters were then counted to determine [^3H]LSD specifically bound. Compounds were screened at 1 μM or lower, using 1% DMSO as vehicle. Compounds of the invention were tested in this biochemical assay and percent inhibition of specific binding was determined. Biochemical assay results are presented as the percent inhibition of specific binding in Table 7.
In the case of `CNC(=O)CCn1c2c(c3cc(C)ccc31)CN(C)CC2` [Compound 1, 3-(1,2,3,4-tetrahydro-2,8-dimethylpyrido[4,3-b]indol-5-yl)-N-methylpropanamide], the inhibition at 1 µM is 4%.
Still for that read-out and setting: next, `Cc1ccc2c(c1)c1c(n2CCC(=O)NC2CCCC2)CCN(C)C1` [Compound 4, N-cyclopentyl-3-(1,2,3,4-tetrahydro-2,8-dimethylpyrido[4,3-b]indol-5-yl)propanamide]: 47%; `C#CCn1c2c(c3cc(C)ccc31)CN(C)CC2` [CD73, 2,8-dimethyl-5-(prop-2-ynyl)-2,3,4,5-tetrahydro-1H-pyrido[4,3-b]indole]: 63%.

For a further assay, the system named is rat central imidazoline I2 receptor. In words: Central imidazoline I2 radioligand binding ([3H]Idazoxan). To be noted: compound at 1 μM; Wistar Rat cerebral cortex. On the procedure:
To evaluate in radioligand binding assays the activity of compounds of the invention, rat central imidazoline I2 receptor obtained from Wistar Rat cerebral cortex (Brown, C. M. et al., Br. J. Pharmacol. 99:803, 1990) in a modified Tris-HCl buffer (50 mM Tris-HCl buffer, pH 7.4, 0.5 mM EDTA) was used. Compounds of the invention were incubated with 2 nM [^3H]Idazoxan for 30 minutes at 25° C. Non-specific binding was estimated in the presence of 1 μM Idazoxan. Receptor proteins were filtered and washed, the filters were then counted to determine [^3H]Idazoxan specifically bound. Compounds were screened at 1 μM or lower, using 1% DMSO as vehicle. Compounds of the invention were tested in this biochemical assay and percent inhibition of specific binding was determined. Biochemical assay results are presented as the percent inhibition of specific binding in Table 5.
For `CNC(=O)CCn1c2c(c3cc(C)ccc31)CN(C)CC2` [Compound 1, 3-(1,2,3,4-tetrahydro-2,8-dimethylpyrido[4,3-b]indol-5-yl)-N-methylpropanamide], the “Imidazoline I2 Central (1 μM), percent inhibition of specific binding” value turned out to be 18%.
With `Cc1ccc2c(c1)c1c(n2CCC(=O)NC2CCCC2)CCN(C)C1` [Compound 4, N-cyclopentyl-3-(1,2,3,4-tetrahydro-2,8-dimethylpyrido[4,3-b]indol-5-yl)propanamide], the “Imidazoline I2 Central (1 μM), percent inhibition of specific binding” value stood at 54%.
Turning to `C#CCn1c2c(c3cc(C)ccc31)CN(C)CC2` [CD73, 2,8-dimethyl-5-(prop-2-ynyl)-2,3,4,5-tetrahydro-1H-pyrido[4,3-b]indole], the “Imidazoline I2 Central (1 μM), percent inhibition of specific binding” value is reported as 73%.
